We go through ten molecules from ChEMBL document CHEMBL1201862, “PubChem BioAssay data set” (2004).

Test systems include HOP-92; NCI-H23; KM12; HL-60; NCI/ADR-RES; SF-539; EKVX; RXF 393; Malme-3M; MCF7; UACC-62; SK-MEL-5; MDA-MB-231; HCT-116; COLO 205; K562; MDA-N; HOP-62; OVCAR-3; DU-145.
Assay in all cases: growth of human tumour cells (NCI), 48 h

The structures appear in SMILES notation.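 How tested: cells in 96-well plates exposed to compound for 48 hours at five concentrations. GI50 is the concentration that inhibits growth by half.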 Calls of active or inactive are those of the source. No stated cut-off is given here; in the data, active = GI50 up to about 1.1 µM and inactive = higher.

Take `COc1ccc(C2SC(=N)Nc3c2c(C)nn3C(=O)c2ccc(Cl)cc2)cc1` (stereo not given): the GI50 with HOP-92, with NCI-H23, in the assay on KM12, in the assay on HL-60, in the assay with NCI/ADR-RES and in the assay with SF-539 was > 10 µM (inactive) throughout. The GI50 with EKVX, in the assay with RXF 393, in the assay on Malme-3M, in the assay on MCF7, in the assay with UACC-62 and with SK-MEL-5 was > 10 µM (inactive) each time. Further, the GI50 in the assay on MDA-MB-231, in the assay on HCT-116, in the assay on COLO 205, with K562, with MDA-N and with HOP-62 was > 10 µM (inactive) each time. Besides, the GI50 with OVCAR-3 and with DU-145 was > 10 µM (inactive) each time.

Take `Cn1c(SCc2ccc([N+](=O)[O-])cc2)nnc1C12CC3CC(CC(C3)C1)C2`: the GI50 with HOP-92, in the assay on NCI-H23, with KM12, in the assay on HL-60, in the assay with NCI/ADR-RES and with SF-539 was > 10 µM (inactive) throughout. In addition, the GI50 in the assay on EKVX, in the assay with RXF 393, in the assay with Malme-3M, in the assay on MCF7, in the assay with UACC-62 and in the assay with SK-MEL-5 was > 10 µM (inactive) each time. In addition, the GI50 in the assay on MDA-MB-231, in the assay with HCT-116, in the assay on COLO 205, in the assay on K562, with MDA-N and in the assay on HOP-62 was > 10 µM (inactive) each time. The GI50 in the assay with OVCAR-3 and in the assay on DU-145 was > 10 µM (inactive) in each case.

Take `CO[C@H]1C[C@](C)(O)Cc2cc3c(c(O)c21)C(=O)c1c(O)cc2c(c1C3=O)O[C@@H]1O[C@@]2(C)[C@H](O)[C@@H](N(C)C)[C@@H]1O`: the GI50 is 0.362 µM (active) in the assay on HOP-92; 0.804 µM (active) in the assay with NCI-H23; 1.76 µM (inactive) in the assay on KM12; 0.115 µM (active) in the assay on HL-60; 10 µM (inactive) with NCI/ADR-RES; 0.851 µM (active) in the assay on SF-539. Further, the GI50 with EKVX is 3.55 µM (inactive); with RXF 393 it was 1.17 µM (inactive); in the assay with Malme-3M, 1.09 µM (active); in the assay with MCF7 it was 0.103 µM (active); in the assay on UACC-62, 0.738 µM (active); in the assay with SK-MEL-5, 1.16 µM (inactive). In addition, the GI50 with MDA-MB-231 was 1.82 µM (inactive); in the assay on HCT-116 it was 0.652 µM (active); in the assay with COLO 205, 1.96 µM (inactive); in the assay with K562 it was 1.12 µM (inactive); in the assay on MDA-N, 1.85 µM (inactive); in the assay on HOP-62 it was 0.181 µM (active). Besides, the GI50 with OVCAR-3 was 2.38 µM (inactive); with DU-145, 0.536 µM (active).

For `Cc1cc(S(=O)(=O)Nc2nnc3c4ccccc4cnn23)c(S)cc1Cl`, the GI50 in the assay with HOP-92 was > 49.9 µM (inactive); in the assay with NCI-H23, 63 µM (inactive); in the assay on KM12, 31.7 µM (inactive); with HL-60, > 100 µM (inactive); in the assay on NCI/ADR-RES, > 64.7 µM (inactive); in the assay with SF-539 it was > 56.9 µM (inactive). Moreover, the GI50 with EKVX was 44 µM (inactive); in the assay on RXF 393 it was > 100 µM (inactive); with Malme-3M, > 100 µM (inactive); with MCF7, > 67.3 µM (inactive); in the assay with UACC-62 it was 46.9 µM (inactive); in the assay on SK-MEL-5, > 81.5 µM (inactive). Besides, the GI50 in the assay on MDA-MB-231 was > 93.3 µM (inactive); in the assay with HCT-116 it was 58.2 µM (inactive); in the assay on COLO 205 it was > 100 µM (inactive); in the assay with K562 it was > 100 µM (inactive); with MDA-N, > 100 µM (inactive); in the assay on HOP-62, 52.8 µM (inactive). Also, the figures for the GI50 with OVCAR-3 and with DU-145 were > 86.3 µM (inactive) and 61.9 µM (inactive), respectively.

Consider `CN(C)CC1CN(C(=O)Nc2ccccc2)C(=N)O1` (stereo not given), for which the GI50 with HOP-92, with NCI-H23, with KM12, in the assay with HL-60, with NCI/ADR-RES and in the assay with SF-539 was > 100 µM (inactive) in each case. Besides, the GI50 in the assay with EKVX, in the assay on RXF 393, in the assay with Malme-3M, in the assay with MCF7, in the assay with UACC-62 and with SK-MEL-5 was > 100 µM (inactive) each time. The GI50 in the assay on MDA-MB-231 is > 100 µM (inactive); in the assay on HCT-116, > 100 µM (inactive); in the assay on COLO 205, > 100 µM (inactive); in the assay on K562 it was > 100 µM (inactive); in the assay on MDA-N it was 83.2 µM (inactive); in the assay on HOP-62, > 100 µM (inactive). The GI50 was > 100 µM (inactive) with OVCAR-3 and 38.2 µM (inactive) in the assay with DU-145.

With `CC1=NN(C(=O)c2ccncc2)C(=O)C1/N=N/c1ccc2ccccc2c1` (stereo not given), the GI50 was > 100 µM (inactive) in the assay with HOP-92; > 64.3 µM (inactive) with NCI-H23; 17.1 µM (inactive) with KM12; 1.71 µM (inactive) in the assay on HL-60; 13.7 µM (inactive) with NCI/ADR-RES; > 96.8 µM (inactive) with SF-539. Moreover, the GI50 in the assay with EKVX is 2.71 µM (inactive); in the assay on RXF 393, > 100 µM (inactive); with Malme-3M, > 72.6 µM (inactive); in the assay with MCF7 it was 5.32 µM (inactive); with UACC-62 it was 44.2 µM (inactive); in the assay with SK-MEL-5 it was 19.2 µM (inactive). Also, the GI50 with MDA-MB-231 was 20.8 µM (inactive); with HCT-116, 32.7 µM (inactive); in the assay on COLO 205 it was 18.7 µM (inactive); in the assay on K562 it was 5.46 µM (inactive); in the assay on MDA-N, 2.94 µM (inactive); in the assay with HOP-62, > 100 µM (inactive). For the same molecule, the GI50 in the assay with OVCAR-3 was 28.1 µM (inactive); with DU-145, > 73.5 µM (inactive).

As for `C[C@H](CCC(=O)NCCS(=O)(=O)O)[C@H]1CC[C@H]2[C@@H]3CC[C@@H]4C[C@H](O)CC[C@]4(C)[C@H]3CC[C@]12C`, the GI50 in the assay on HOP-92, in the assay on NCI-H23, with KM12, in the assay with HL-60, in the assay with NCI/ADR-RES and in the assay with SF-539 was > 100 µM (inactive) in each case. Besides, the GI50 in the assay on EKVX, with RXF 393, with Malme-3M, in the assay on MCF7, in the assay with UACC-62 and with SK-MEL-5 was > 100 µM (inactive) throughout. The GI50 in the assay on MDA-MB-231, with HCT-116, in the assay on COLO 205, with K562, with MDA-N and in the assay with HOP-62 was > 100 µM (inactive) throughout. Further, the GI50 in the assay on OVCAR-3 and in the assay on DU-145 was > 100 µM (inactive) in each case.

Take `CC(O)(C(=O)N(O)c1ccc(Cl)cc1)c1ccc(Cl)cc1` (stereo not given): the GI50 in the assay with HOP-92 is 20.3 µM (inactive); with NCI-H23, 23.4 µM (inactive); in the assay on KM12, 12.8 µM (inactive); in the assay on HL-60, 14.7 µM (inactive); with NCI/ADR-RES, 25.6 µM (inactive); with SF-539, 32.5 µM (inactive). The GI50 was 39.3 µM (inactive) with EKVX; 26.8 µM (inactive) with RXF 393; 28.1 µM (inactive) in the assay on Malme-3M; 35.4 µM (inactive) in the assay on MCF7; 31.9 µM (inactive) with UACC-62; 18.7 µM (inactive) in the assay on SK-MEL-5. In addition, the GI50 with MDA-MB-231 was 22.8 µM (inactive); in the assay on HCT-116, 28.4 µM (inactive); in the assay on COLO 205 it was 18.1 µM (inactive); in the assay with K562 it was 17.3 µM (inactive); with MDA-N, 41.1 µM (inactive); with HOP-62 it was 26.7 µM (inactive). Further, the GI50 in the assay on OVCAR-3 was 25.2 µM (inactive); with DU-145, 34.4 µM (inactive).

In the case of `O=C(NC(Cc1c[nH]c2ccccc12)C(=O)O)/C(=C/c1ccccc1)NC(=O)c1ccccc1` (stereo not given), the GI50 in the assay with HOP-92 was 23.9 µM (inactive); in the assay on NCI-H23, > 83.2 µM (inactive); with KM12, 57.9 µM (inactive); with HL-60, 77.6 µM (inactive); in the assay with NCI/ADR-RES, 36.6 µM (inactive); in the assay with SF-539, 49.4 µM (inactive). The GI50 is 42.7 µM (inactive) in the assay on EKVX; 34.8 µM (inactive) in the assay on RXF 393; 22.5 µM (inactive) in the assay on Malme-3M; 50 µM (inactive) with MCF7; 41.2 µM (inactive) in the assay with UACC-62; 37 µM (inactive) with SK-MEL-5. In addition, the GI50 in the assay with MDA-MB-231 is > 44.6 µM (inactive); in the assay on HCT-116, > 80.4 µM (inactive); in the assay on COLO 205, > 100 µM (inactive); in the assay with K562, 59.7 µM (inactive); with MDA-N, 82.4 µM (inactive); in the assay on HOP-62, 41.3 µM (inactive). The GI50 in the assay on OVCAR-3 is 38.4 µM (inactive); with DU-145 it was 79.8 µM (inactive).

As to `O=c1oc2ccccc2c(Nc2ccc3c(c2)S(=O)(=O)c2ccccc2O3)c1[N+](=O)[O-]`, the GI50 is 20 µM (inactive) with HOP-92; 23.5 µM (inactive) in the assay on NCI-H23; 28.9 µM (inactive) in the assay with KM12; 27.3 µM (inactive) in the assay on HL-60; 34.4 µM (inactive) in the assay with NCI/ADR-RES; 25.3 µM (inactive) with SF-539. In addition, the GI50 in the assay on EKVX is 30.6 µM (inactive); in the assay on RXF 393 it was 19.5 µM (inactive); in the assay with Malme-3M it was 23.5 µM (inactive); with MCF7, 21.8 µM (inactive); with UACC-62, 14.5 µM (inactive); with SK-MEL-5, 20.1 µM (inactive). Further, the GI50 is 24.5 µM (inactive) in the assay with MDA-MB-231; 23.7 µM (inactive) with HCT-116; 22.3 µM (inactive) in the assay on COLO 205; 20.6 µM (inactive) with K562; 22.5 µM (inactive) in the assay with MDA-N; 30 µM (inactive) in the assay with HOP-62. The results for the GI50 in the assay on OVCAR-3 and with DU-145 were 20.8 µM (inactive) and 27.6 µM (inactive), respectively.
